Measured values: patent US20240269128A1, “COMPOUNDS FOR TREATING OR PREVENTING ALZHEIMER'S DISEASE” (THE UNITED STATES OF AMERICA, as represented by the …, priority 2021, published 2024)

What was measured:
[1] = tested on: murine microglial cell line BV-2; assay: LPS-induced neuroinflammation in BV-2 microglial cells (cytokines by MSD V-PLEX, MTT); type: cell-based, mouse
Procedure: Lipopolysaccharide (LPS)-Induced Neuroinflammation: The murine microglial cell line BV-2 was cultivated in DMEM medium supplemented with 10% FCS, 1% penicillin/streptomycin and 2 mM L-glutamine (culture medium). For LPS stimulation assay, 5000 BV-2 cells per well (uncoated 96 well plates) were plated out and the medium was changed to treatment medium (DMEM, 5% FCS, 2 mM L-glutamine). After changing cells to treatment medium, drug compounds were administered 1 hour before LPS stimulation (Sigma-Aldrich; L6529; 1 mg/ml stock in ddH2O, final concentration in well: 100 ng/ml (dilutions in medium)). Cells treated with vehicle, cells treated with LPS alone, as well as cells treated with LPS plus reference item (dexamethasone 10 μM, Sigma D4902) served as controls. After 24 h of stimulation, cell supernatants were collected for the cytokine measurement (V-PLEX Proinflammatory Panel 1 Mouse Kit, K15048D, Mesoscale) and cells were subjected to MTT assay.
MTT Assay: MTT solution was added to each well in a final concentration of 0.5 mg/mL. After 2 h, the MTT containing medium was aspirated. Cells were lysed in 3% SDS and the formazan crystals were dissolved in isopropanol/HCl. Optical density was measured with a Cytation 5 (Biotek) multimode reader at wavelength 570 nm. Values were calculated as percent of control values (vehicle control or lesion control).
After changing cells to treatment medium, HCQ (0.25 μM, 2.5 μM and 25 μM) was applied 1 hour before LPS stimulation (Sigma-Aldrich; L6529; 1 mg/ml stock in ddH2O, final concentration in well: 100 ng/ml (dilutions in medium)).

[2] = tested on: SH-SY5Y-hTau441(V337M/R406W) cells; assay: Tau phosphorylation assay (Phospho(Thr231)/Total Tau); type: cell-based, human; conditions: 25 μM HCQ
Procedure: Tau Phosphorylation: SH-SY5Y-hTau441(V337M/R406W) cells were maintained in culture medium (DMEM medium, 10% FCS, 1% NEAA, 1% L-Glutamine, 100 g/mL Gentamycin, 300 μg/mL Geneticin G-418) and differentiated with 10 μM retinoic acid (RA) for 5 days changing medium every 2 to 3 days. Prior to the treatment, cells were seeded onto 24-well plates at a cell density of 2×10^5 cells per well (DIV1). Drug compounds were applied on DIV2. After 24 h of incubation (DIV3), cells on 24-well plates were harvested in 60 μL RIPA-Buffer [50 mM Tris pH 7.4, 1% Nonidet P40, 0.25% Na-deoxy-cholate, 150 mM NaCl, 1 mM EDTA supplemented with freshly added 1 μM NaF, 0.2 mM Na-ortho-vanadate, 80 μM Glycerophosphate, protease (Calbiochem) and phosphatase (Sigma) inhibitor cocktail]. Protein concentration was determined by BCA assay (Pierce, ThermoFisher) and samples were adjusted to a uniform total protein concentration. Total Tau and phosphorylated Tau were determined by immunosorbent assay from Mesoscale Discovery (Phospho(Thr231)/Total Tau Kit K15121D, Mesoscale Discovery).
Tau phosphorylation: SH-SY5Y-hTau441(V337M/R406W) cells were maintained in culture medium (DMEM medium, 10% FCS, 1% NEAA, 1% L-Glutamine, 100 μg/mL Gentamycin, 300 μg/mL Geneticin G-418) and differentiated with 10 μM retinoic acid (RA) for 5 days changing medium every 2 to 3 days. Prior to the treatment, cells were seeded onto 24-well plates at a cell density of 2×10^5 cells per well (DIV1). HCQ (25 μM) was applied on DIV2. After 24 h of incubation (DIV3), cells on 24-well plates were harvested in 60 μL RIPA-Buffer [50 mM Tris pH 7.4, 1% Nonidet P40, 0.25% Na-deoxy-cholate, 150 mM NaCl, 1 mM EDTA supplemented with freshly added 1 μM NaF, 0.2 mM Na-ortho-vanadate, 80 μM Glycerophosphate, protease (Calbiochem) and phosphatase (Sigma) inhibitor cocktail]. Protein concentration was determined by BCA assay (Pierce, ThermoFisher) and samples were adjusted to a uniform total protein concentration. Total Tau and phosphorylated Tau were determined by immunosorbent assay from Mesoscale Discovery (Phospho(Thr231)/Total Tau Kit K15121D, Mesoscale Discovery).
Tau Phosphorylation: SH-SY5Y-hTau441(V337M/R406W) cells were maintained in culture medium [DMEM medium, 10% FCS, 1% nonessential amino acids (NEAA), 1% l-glutamine, gentamycin (100 μg/ml), and geneticin G-418 (300 μg/ml)] and differentiated with 10 μM retinoic acid for 5 days changing medium every 2 to 3 days. […] Protein concentration was determined by BCA assay (Pierce, Thermo Fisher Scientific, Waltham, MA), and samples were adjusted to a uniform total protein concentration. Total tau and phosphorylated tau were determined by immunosorbent assay from Mesoscale Discovery [Phospho(Thr231)/Total Tau Kit K15121D, Mesoscale Discovery, Meso Scale Diagnostics]. […]

[3] = tested on: Primary hippocampal neurons; assay: Neurite outgrowth and neurogenesis; type: cell-based, mouse; conditions: HCQ 25, 2.5 or 0.25 μM
Procedure: Neurite outgrowth and neurogenesis: Primary hippocampal neurons were prepared from E18.5 timed pregnant C57BL/6JRccHsd mice as previously described. Cells were seeded in poly-D-lysine pre-coated 96-well plates at a density of 2.6×10^4 cells/well in (Neurobasal, 2% B-27, 0.5 mM glutamine, 25 μM glutamate, 1% Penicillin-Streptomycin). Directly on DIV1 HCQ (TargetMol, T0951) at 25 μM, 2.5 μM or 0.25 μM concentrations or vehicle control was applied. On DIV2 10 μM Bromodeoxyuridine (BrdU; B5002 Sigma Aldrich) was added and cells were fixed after additional 24 h. Cells were permeabilized with 0.1% Triton-X and incubated with primary Beta Tubulin Isotype III (T8660, Sigma Aldrich) and BrdU antibodies (MAS250c, AHrlan-Sera Lab) overnight at 4° C. Afterwards cells were washed two times with PBS and incubated with fluorescently labeled secondary antibodies and DAPI for 1.5 hour at RT in the darkness. Cells were rinsed three times with PBS imaged with the Cytation 5 Multimode reader (BioTek) at 10× magnification (6 images per well). BrdU positive cells were counted as marker for neurogenesis and Beta Tubulin Isotype III signal was used for macro-based quantification of neurite outgrowth.

[4] = albino rats; cited from earlier work
[5] = in vivo; cited from earlier work
[6] = biological target: T1, STAT3 (Mus musculus, UniProt P42227); assay: Western blot of total and phosphorylated STAT3 in mouse embryonic cortical neurons; type: cell-based; set-up: hippocampal homogenate samples across four groups; from tissue; host or cells: acute hippocampal slices from WT and APP/PS1 (APPSwe/PS1dE9) mice; conditions: 50 μM, 48 hours
T1 sequence (P42227 whole entry): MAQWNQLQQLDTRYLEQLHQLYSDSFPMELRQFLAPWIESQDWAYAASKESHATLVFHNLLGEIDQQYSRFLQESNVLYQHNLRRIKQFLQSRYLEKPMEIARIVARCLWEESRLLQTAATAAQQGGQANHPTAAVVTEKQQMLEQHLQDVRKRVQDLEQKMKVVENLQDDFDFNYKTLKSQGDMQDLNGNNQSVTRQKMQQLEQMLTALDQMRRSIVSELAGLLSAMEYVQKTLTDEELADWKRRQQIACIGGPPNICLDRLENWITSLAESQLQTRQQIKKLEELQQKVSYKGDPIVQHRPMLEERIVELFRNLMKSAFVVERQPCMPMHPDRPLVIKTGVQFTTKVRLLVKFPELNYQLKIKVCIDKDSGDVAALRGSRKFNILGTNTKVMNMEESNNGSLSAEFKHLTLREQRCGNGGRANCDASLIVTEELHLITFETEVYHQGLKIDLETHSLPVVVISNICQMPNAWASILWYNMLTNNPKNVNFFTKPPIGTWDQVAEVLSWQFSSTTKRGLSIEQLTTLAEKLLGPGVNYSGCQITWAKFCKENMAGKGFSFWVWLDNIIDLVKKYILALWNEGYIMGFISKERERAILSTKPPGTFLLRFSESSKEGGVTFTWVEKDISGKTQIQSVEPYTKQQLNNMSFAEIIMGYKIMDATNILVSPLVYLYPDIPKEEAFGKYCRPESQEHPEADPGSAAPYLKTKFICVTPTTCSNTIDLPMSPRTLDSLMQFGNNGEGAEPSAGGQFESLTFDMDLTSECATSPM
Procedure: For primary cultures of embryonic cortical neurons, timed-pregnant mice were obtained from The Jackson Laboratory. Cultures were prepared from embryonic day (E) 14.5 cerebral tissues as described (Zhao et al., Cell Death Differ 2019, 26:1600-1614). Pregnant mice were killed by fast cervical dislocation, embryos and embryo brains were removed, and the cerebral hemisphere was extracted in sterile Hank's balanced saline solution (HBSS). Brain tissues were incubated in 0.25% trypsin-EDTA for 30 min at 37° C.and then transferred to DMEM containing 10% fetal bovine serum (DMEM+). The tissues were transferred to neurobasal (NB) medium containing B27 supplements, 2 mM L-glutamine, antibiotics and antimycotics (Gibco), and 1 mM HEPES and dissociated by trituration using a fire-polished Pasteur pipet. The dissociated cells were seeded into polyethyleneimine-coated plastic culture dishes at a density of 60,000 cells/cm^2 and cultured in the same B27-containing NB medium. Experiments were started 5 days later.
HCQ treatment: Treatment with hydroxychloroquine Sulfate (Selleckchem, Catalog No.S4430) was performed at 50 μM concentration. […]
Statistical analysis: Digitized images were obtained, processed, and quantified with ImageLab version 6.1 (BioRad Laboratories).

[7] = biological target: T1, STAT3; assay: Western blot of hippocampal STAT3 and p-STAT3 after STET; set-up: hippocampal homogenate samples across four groups; from tissue; host or cells: acute hippocampal slices from WT and APP/PS1 (APPSwe/PS1dE9) mice
Procedure: To test if the rescue of impaired late-LTP by HCQ may be through inactivation of STAT3, levels of total STAT3 and phosphorylated STAT3 (p-STAT3; Tyr705) were examined to determine whether they were reduced by HCQ treatment. Specifically, differences in STAT3 and pSTAT3 levels were tested in hippocampal homogenate samples across four groups: WT, APP/PS1, WT+50 μM HCQ, and APP/PS1+50 μM HCQ mice (5-months old). All hippocampal slices were incubated in the interphase chamber and HCQ was applied 30 minutes before and after STET. In each group, hippocampal slices were collected one hour after STET.

With `CCN(CCO)CCCC(C)Nc1ccnc2cc(Cl)ccc12` (stereo not shown) [HCQ, hydroxychloroquine] the IL-1b ([1]; 2.5 μM, 25 μM, LPS) was “dose dependent (2.5 μM<25 μM) reduction”, the IL-6 ([1]; 2.5 μM, 25 μM, LPS) was “dose dependent (2.5 μM<25 μM) reduction” and the IL-10 ([1]; 2.5 μM, 25 μM, LPS) was “dose dependent (2.5 μM<25 μM) reduction”. The IL-12p70 ([1]; 2.5 μM, 25 μM, LPS) was “dose dependent (2.5 μM<25 μM) reduction”, the TNF-alpha secretion ([1]; 25 μM, LPS) was “reduction” and the cell viability ([1]; HCQ in LPS assay) was “without any adverse effects on cell viability”. The “phosphorylated tau (ptau231)” value [2] was “reduced”, the total tau [2] was “reduced” and the “neurite outgrowth and neurogenesis” value [3] was “No effects”. For the same compound, the Kp brain/plasma [4] was 4-31, the “serious side effects of retinopathy and cardiac toxicity” value [5] was “relatively rare” and the “p-STAT3 (Tyr705 and Ser727)” value [6] was “reduced”. For the same compound, the “total STAT3” value [6] was “without alteration”, the “hippocampal p-STAT3 (Tyr705)” value ([7]; APP/PS1+50 μM HCQ vs untreated APP/PS1) was “significantly lower” and the “hippocampal total STAT3” value ([7]; APP/PS1 vs APP/PS1+50 μM HCQ) was “no significant difference”. For the same compound, the “hippocampal total STAT3 and p-STAT3 (Tyr705)” value ([7]; WT vs WT+50 μM HCQ) was “similar”.
